Results taken from patent publication US20180110754A1, “CENICRIVIROC FOR THE TREATMENT OF FIBROSIS” (Tobira Therapeutics, Inc., priority 2015, published 2018).

What was measured:
[1] = Study 202: ECG abnormalities and vital signs; format: in vivo, human; settings: All CVC (N = 115); EFV (N = 28), through Week 48
[2] = Text: Subjects with a history of HIV-2, hepatitis B and/or C, cirrhosis of the liver or any known active or chronic active liver disease were excluded from the study.
Most AEs were mild or moderate (Grade 1 or Grade 2). […] None of the Grade ≥3 AEs (preferred terms) were reported in more than 1 subject.

For `O=C1Nc2ccc(Cl)cc2[C@@](C#CC2CC2)(C(F)(F)F)O1` [EFV, efavirenz, reference compound], the “HR Abnormally high, n subjects” value [1] was 0, the “HR Abnormally low, n subjects” value [1] was 0 and the “PR Abnormally high, n subjects” value [1] was 1. The “QRS Abnormally high, n subjects” value [1] was 0, the “QRS Abnormally low, n subjects” value [1] was 0 and the “QTcB interval Borderline (450-480 ms), n subjects” value [1] was 3. For the same compound, the “QTcB interval Increase by >30-60 ms, n subjects” value [1] was 4, the “QTcB interval Increase by >60 ms, n subjects” value [1] was 0 and the “QTcB interval Pathologically prolonged, n subjects” value [1] was 0. For the same compound, the “QTcB interval Prolonged, n subjects” value [1] was 0, the “QTcF interval Borderline (450-480 ms), n subjects” value [1] was 0 and the “QTcF interval Increase by >30-60 ms, n subjects” value [1] was 4. The “QTcF interval Increase by >60 ms, n subjects” value [1] was 0, the “QTcF interval Pathologically prolonged, n subjects” value [1] was 0 and the “QTcF interval Prolonged, n subjects” value [1] was 0. For the same compound, the “SAE: Suicidal ideation, n subjects” value ([2]; All CVC (N = 115), EFV (N = 28), through Week 48) was 1, the “Grade 3 or 4 AE: Suicidal ideation, n subjects” value ([2]; All CVC (N = 115), EFV (N = 28; Grade 4 event)) was 1 and the Deaths ([2]; EFV (N = 28)) was 0 n. For the same compound, the “Grade 3 or 4 AE: Blood creatine phosphokinase increased, n subjects” value ([2]; human, in vivo, 48 week) was 0, the “Grade 3 or 4 AE: Cardiac disorders, n subjects” value ([2]; human, in vivo, 48 week) was 0 and the “Grade 3 or 4 AE: Depression, n subjects” value ([2]; human, in vivo, 48 week) was 1. The “Grade 3 or 4 AE: Ear and labyrinth disorders, n subjects” value ([2]; human, in vivo, 48 week) was 1, the “Grade 3 or 4 AE: Investigations, n subjects” value ([2]; human, in vivo, 48 week) was 1 and the “Grade 3 or 4 AE: Palpitations, n subjects” value ([2]; human, in vivo, 48 week) was 0. The “Grade 3 or 4 AE: Psychiatric disorders, n subjects” value ([2]; human, in vivo, 48 week) was 1, the “Grade 3 or 4 AE: Stress, n subjects” value ([2]; human, in vivo, 48 week) was 0 and the “Grade 3 or 4 AE: Weight decreased, n subjects” value ([2]; human, in vivo, 48 week) was 1. The “AE Abnormal dreams, n subjects” value ([2]; human, in vivo, 48 weeks) was 6, the “AE Depression, n subjects” value ([2]; human, in vivo, 48 weeks) was 3 and the “AE Diarrhoea, n subjects” value ([2]; human, in vivo, 48 weeks) was 3. The “AE Dizziness, n subjects” value ([2]; human, in vivo, 48 weeks) was 8, the “AE Fatigue, n subjects” value ([2]; human, in vivo, 48 weeks) was 1 and the “AE Headache, n subjects” value ([2]; human, in vivo, 48 weeks) was 0. For the same compound, the “AE Insomnia, n subjects” value ([2]; human, in vivo, 48 weeks) was 4, the “AE Lymphadenopathy, n subjects” value ([2]; human, in vivo, 48 weeks) was 4 and the “AE Nasopharyngitis, n subjects” value ([2]; human, in vivo, 48 weeks) was 1. The “AE Nausea, n subjects” value ([2]; human, in vivo, 48 weeks) was 6, the “AE Rash, n subjects” value ([2]; human, in vivo, 48 weeks) was 5 and the “AE Syphilis, n subjects” value ([2]; human, in vivo, 48 weeks) was 3. The “AE Upper respiratory tract infection, n subjects” value ([2]; human, in vivo, 48 weeks) was 2, the “AE leading to discontinuation: Abnormal dreams, n subjects” value ([2]; human, in vivo, 48 weeks) was 1 and the “AE leading to discontinuation: Aggression, n subjects” value ([2]; human, in vivo, 48 weeks) was 0. The “AE leading to discontinuation: Anxiety, n subjects” value ([2]; human, in vivo, 48 weeks) was 1, the “AE leading to discontinuation: Depression, n subjects” value ([2]; human, in vivo, 48 weeks) was 1 and the “AE leading to discontinuation: Dermatitis allergic, n subjects” value ([2]; human, in vivo, 48 weeks) was 1. For the same compound, the “AE leading to discontinuation: Disturbance in attention, n subjects” value ([2]; human, in vivo, 48 weeks) was 1, the “AE leading to discontinuation: Dizziness, n subjects” value ([2]; human, in vivo, 48 weeks) was 2 and the “AE leading to discontinuation: Ear and labyrinth disorders, n subjects” value ([2]; human, in vivo, 48 weeks) was 1. For the same compound, the “AE leading to discontinuation: Eye disorders, n subjects” value ([2]; human, in vivo, 48 weeks) was 1, the “AE leading to discontinuation: Gastrointestinal disorders, n subjects” value ([2]; human, in vivo, 48 weeks) was 1 and the “AE leading to discontinuation: General disorders and administration site conditions, n subjects” value ([2]; human, in vivo, 48 weeks) was 0. The “AE leading to discontinuation: Hypoaesthesia, n subjects” value ([2]; human, in vivo, 48 weeks) was 1, the “AE leading to discontinuation: Insomnia, n subjects” value ([2]; human, in vivo, 48 weeks) was 3 and the “AE leading to discontinuation: Malaise, n subjects” value ([2]; human, in vivo, 48 weeks) was 0. For the same compound, the “AE leading to discontinuation: Musculoskeletal and connective tissue disorders, n subjects” value ([2]; human, in vivo, 48 weeks) was 1, the “AE leading to discontinuation: Musculoskeletal discomfort, n subjects” value ([2]; human, in vivo, 48 weeks) was 1 and the “AE leading to discontinuation: Nausea, n subjects” value ([2]; human, in vivo, 48 weeks) was 1. The “AE leading to discontinuation: Nervous system disorders, n subjects” value ([2]; human, in vivo, 48 weeks) was 4, the “AE leading to discontinuation: Photophobia, n subjects” value ([2]; human, in vivo, 48 weeks) was 1 and the “AE leading to discontinuation: Psychiatric disorders, n subjects” value ([2]; human, in vivo, 48 weeks) was 3. The “AE leading to discontinuation: Rash, n subjects” value ([2]; human, in vivo, 48 weeks) was 1, the “AE leading to discontinuation: Skin and subcutaneous tissue disorders, n subjects” value ([2]; human, in vivo, 48 weeks) was 2 and the “AE leading to discontinuation: Tachyphrenia, n subjects” value ([2]; human, in vivo, 48 weeks) was 1. For the same compound, the “AE leading to discontinuation: Thinking abnormal, n subjects” value ([2]; human, in vivo, 48 weeks) was 0, the “AE leading to discontinuation: Tinnitus, n subjects” value ([2]; human, in vivo, 48 weeks) was 1 and the “Any AE leading to discontinuation of study drug, n subjects” value ([2]; human, in vivo, 48 weeks) was 6. The “Any AE, n subjects” value ([2]; human, in vivo, 48 weeks) was 27, the “Any Grade 3 AE, n subjects” value ([2]; human, in vivo, 48 weeks) was 3 and the “Any Grade 4 AE, n subjects” value ([2]; human, in vivo, 48 weeks) was 1. The “Any SAE, n subjects” value ([2]; human, in vivo, 48 weeks) was 1, the “Grade 3 or 4 AE: Abdominal pain, n subjects” value ([2]; human, in vivo, 48 weeks) was 0 and the “Grade 3 or 4 AE: Blindness unilateral, n subjects” value ([2]; human, in vivo, 48 weeks) was 0. The “Grade 3 or 4 AE: Corneal infection, n subjects” value ([2]; human, in vivo, 48 weeks) was 0, the “Grade 3 or 4 AE: Dermatitis allergic, n subjects” value ([2]; human, in vivo, 48 weeks) was 1 and the “Grade 3 or 4 AE: Eye disorders, n subjects” value ([2]; human, in vivo, 48 weeks) was 0. The “Grade 3 or 4 AE: Gastrointestinal disorders, n subjects” value ([2]; human, in vivo, 48 weeks) was 0, the “Grade 3 or 4 AE: General disorders and administration site conditions, n subjects” value ([2]; human, in vivo, 48 weeks) was 0 and the “Grade 3 or 4 AE: Infections and infestations, n subjects” value ([2]; human, in vivo, 48 weeks) was 0. The “Grade 3 or 4 AE: Pyrexia, n subjects” value ([2]; human, in vivo, 48 weeks) was 0, the “Grade 3 or 4 AE: Skin and subcutaneous tissue disorders, n subjects” value ([2]; human, in vivo, 48 weeks) was 1 and the “Grade 3 or 4 AE: Tinnitus, n subjects” value ([2]; human, in vivo, 48 weeks) was 1. The “SAE: Blindness unilateral, n subjects” value ([2]; human, in vivo, 48 weeks) was 0, the “SAE: Corneal infection, n subjects” value ([2]; human, in vivo, 48 weeks) was 0 and the “SAE: Depression, n subjects” value ([2]; human, in vivo, 48 weeks) was 1. For the same compound, the “SAE: Eye disorders, n subjects” value ([2]; human, in vivo, 48 weeks) was 0, the “SAE: Gastroenteritis, n subjects” value ([2]; human, in vivo, 48 weeks) was 0 and the “SAE: Infections and infestations, n subjects” value ([2]; human, in vivo, 48 weeks) was 0. For the same compound, the “SAE: Psychiatric disorders, n subjects” value ([2]; human, in vivo, 48 weeks) was 1 and the “Subjects who experienced a Grade ≥3 AE” value ([2]; human, in vivo, 48 weeks) was 15%.
